According to patent US20200377561A1, “ANTIMICROBIAL PEPTIDES AND METHODS OF TREATING GRAM-NEGATIVE PATHOGEN INFECTIONS: POLAR AND NON-POLAR FACE ANALOGS” (THE REGENTS OF THE UNIVERSITY OF COLORADO, a body corporate, priority 2017, published 2020):
Peptide text beside a SMILES is read from it.

What was measured:
[1] = Peptide hydrophobicity by RP-HPLC retention; type: physicochemical; settings: for tR (relative hydrophobicity by RP-HPLC): Zorbax SB-300 C8, 0.25% B/min from 10% B, 0.3 ml/min, 30° C.; for ΔtR (Lys): retention time difference to the Lys13/Lys16 parent peptide
Source text: Retention behavior in RP-HPLC is an excellent method to represent overall peptide hydrophobicity. Retention times of peptides are highly sensitive to the conformational status of the peptides upon interaction with the hydrophobic environment of the column matrix^17,26. The non-polar faces of amphipathic alpha-helical and amphipathic cyclic beta-sheet peptides represent a preferred binding domain for interaction with the hydrophobic matrix of the reversed-phase column^27. In this study, the observed peptide hydrophobicity was determined by RP-HPLC retention time as described below and are relative hydrophobicities because they are dependent on the TFA concentration and organic solvent in the mobile phase, gradient rate, temperature, flow rate and the column used. Analytical Purification by Reversed-phase Chromatography: Analytical RP-HPLC: Column: Zorbax SB-300 C8 (150×2.1 mm ID; 5-μm particle size; 300 Å pore size). Conditions: linear AB gradient (0.25% B/min from 10% B) at a flow-rate of 0.3 ml/min, where Eluent A is 0.2% aq. TFA and Eluent B is 0.18% TFA in acetonitrile; 30° C.

[2] = tested on: Human erythrocytes; experiment: Haemolysis assay using human blood; type: cell-based; settings: red cells of human, 1 h
Method: To determine the extent of haemolytic activity (the ability to lyse red blood cells) in test peptides, a haemolysis assay was conducted using human blood (BioIVT, West Sussex, UK). Human erythrocytes were exposed to a single fixed concentration or a range of concentrations as to determine the % haemolysis (fixed concentration) or the concentration at which 50% haemolysis occurred (HC50), respectively. Prior to the assay, whole human blood was repeatedly washed in phosphate buffered saline (PBS) under cooled conditions to remove the buffy coat, plasma and cell debris. Washed erythrocytes were diluted as to achieve 1×10^8 cells/mL in PBS. Prepared human erythrocyte samples were combined with peptide at a single fixed concentration of 128 μg/mL, or a range of concentrations (two-fold dilution series) from 1000-31.25 μg/mL. Positive and negative controls containing 2% (v/v) Triton X-100 and PBS alone, respectively, were also prepared. Samples were incubated at 37° C. for 1 hour and then centrifuged to collect intact erythrocytes. Haemoglobin release was determined by recording the optical density of the supernatant at 540 nm. Optical density values were transformed to a percentage of the positive control. Results were recorded as a percentage haemolysis at 128 μg/mL, or by plotting the percentage haemolysis versus concentration and extrapolating the HC50 using linear regression analysis (Table 2 above)
The therapeutic index is a widely-accepted parameter to represent the specificity of antimicrobial peptides for prokaryotic versus eukaryotic cells. It is calculated by the ratio of hemolytic activity and antimicrobial activity (MIC) (Table 2 above); thus, larger values of therapeutic index indicate greater specificity for prokaryotic cells. With the peptides used in this study the inventors used the HC50/MIC ratio value to calculate the therapeutic index.

[3] = tested on: Pseudomonas aeruginosa ATCC 27853; type: cell-based; settings: ATCC 27853
Method: (§1) Bacterial strains were acquired from the American Type Culture Collection (ATCC, Virginia, USA) and the National Collection of Type Cultures (NCTC, Public Health England, Salisbury, UK). Minimum Inhibitory Concentration (MIC) of peptides versus gram-negative strains-Acinetobacter baumannii NCTC 13420, and Pseudomonas aeruginosa ATCC 27853 and gram-positive strain Staphylococcus aureus ATCC 29213, were determined by broth microdilution as per the guidelines of the Clinical and Laboratory Standards Institute (“Methods for Dilution Antimicrobial Susceptibility Tests for Bacteria That Grow Aerobically”; Approved Standard-Ninth Edition. CLSI document M07-A9, 2012). Peptides were dissolved in sterile distilled water, which was also used as the drug-free vehicle control when determining peptide MICs. Prior to use in the MIC protocol, bacterial strains were grown on Mueller Hinton agar at 37° C. in an ambient atmosphere. […] A fixed inoculum of the test microorganism (5×10^5 cells/mL) is also added to the plate. The MIC is determined as the lowest concentration of compound that inhibits visible bacterial growth following incubation at 37° C. for 16-20 hours. A difference in MIC of two-fold between experimental replicates is considered to be within the normal variability of this protocol.

[4] = tested on: Acinetobacter baumannii NCTC 13420; type: cell-based; settings: NCTC 13420
Method: as §1

Row | tR (relative hydrophobicity by RP-HPLC) [1] | ΔtR (Lys) [1] | P. aeruginosa ATCC27853 MIC [3] | Antimicrobial Activity MIC A. baumannii NCTC13420 [4] | Structure (SMILES) | Haemolysis HC50 [2]
1 | 83.40 min | 3.97 min | 4 µg/mL | 2 µg/mL | CC(=O)N[C@H](CCCCN)C(=O)N[C@H](CC(C)C)C(=O)N[C@H](CCCCN)C(=O)N[C@H](CCCCN)C(=O)N[C@H](CC(C)C)C(=O)N[C@H](CC(C)C)C(=O)N[C@H](CCCCN)C(=O)N[C@H](CCCCN)C(=O)N[C@H](CC(C)C)C(=O)N[C@H](CO)C(=O)N[C@H](CO)C(=O)N[C@H](C)C(=O)N[C@H](CCN)C(=O)N[C@H](CO)C(=O)N[C@H](CO)C(=O)N[C@H](CCN)C(=O)N[C@H](CC(C)C)C(=O)N[C@H](CO)C(=O)N[C@@H](C(=O)N[C@H](CC(C)C)C(=O)N[C@H](CC(C)C)C(=O)N[C@H](CCCCN)C(=O)N[C@H](CCCCN)C(=O)N[C@H](CC(C)C)C(=O)N[C@H](CCCCN)C(=O)N[C@H](CCCCN)C(N)=O)[C@H](C)O [compound 15] (HELM PEPTIDE1{[ac].[dK].[dL].[dK].[dK].[dL].[dL].[dK].[dK].[dL].[dS].[dS].[dA].[NCC[C@@H](N[*:1])C(=O)[*:2]].[dS].[dS].[NCC[C@@H](N[*:1])C(=O)[*:2]].[dL].[dS].[dT].[dL].[dL].[dK].[dK].[dL].[dK].[dK].[am]}$$$$V2.0) | >1000 µg/mL
2 | 84.06 min | 3.31 min | 4 µg/mL | 2 µg/mL | CC(=O)N[C@H](CCCCN)C(=O)N[C@H](CC(C)C)C(=O)N[C@H](CCCCN)C(=O)N[C@H](CCCCN)C(=O)N[C@H](CC(C)C)C(=O)N[C@H](CC(C)C)C(=O)N[C@H](CCCCN)C(=O)N[C@H](CCCCN)C(=O)N[C@H](CC(C)C)C(=O)N[C@H](CO)C(=O)N[C@H](CO)C(=O)N[C@H](C)C(=O)N[C@H](CN)C(=O)N[C@H](CO)C(=O)N[C@H](CO)C(=O)N[C@H](CN)C(=O)N[C@H](CC(C)C)C(=O)N[C@H](CO)C(=O)N[C@@H](C(=O)N[C@H](CC(C)C)C(=O)N[C@H](CC(C)C)C(=O)N[C@H](CCCCN)C(=O)N[C@H](CCCCN)C(=O)N[C@H](CC(C)C)C(=O)N[C@H](CCCCN)C(=O)N[C@H](CCCCN)C(N)=O)[C@H](C)O [compound 16] (HELM PEPTIDE1{[ac].[dK].[dL].[dK].[dK].[dL].[dL].[dK].[dK].[dL].[dS].[dS].[dA].[NC[C@@H](N[*:1])C(=O)[*:2]].[dS].[dS].[NC[C@@H](N[*:1])C(=O)[*:2]].[dL].[dS].[dT].[dL].[dL].[dK].[dK].[dL].[dK].[dK].[am]}$$$$V2.0) | >1000 µg/mL
3 | 91.57 min | 2.94 min | 4 µg/mL | 2 µg/mL | CC(=O)N[C@H](C)C(=O)N[C@H](CC(C)C)C(=O)N[C@H](CCCCN)C(=O)N[C@H](CCCCN)C(=O)N[C@H](CC(C)C)C(=O)N[C@H](CC(C)C)C(=O)N[C@H](CCCCN)C(=O)N[C@H](CCCCN)C(=O)N[C@H](CC(C)C)C(=O)N[C@H](CO)C(=O)N[C@H](CO)C(=O)N[C@H](C)C(=O)N[C@H](CCCN)C(=O)N[C@H](CO)C(=O)N[C@H](CO)C(=O)N[C@H](CCCN)C(=O)N[C@H](CC(C)C)C(=O)N[C@H](CO)C(=O)N[C@@H](C(=O)N[C@H](CC(C)C)C(=O)N[C@H](CC(C)C)C(=O)N[C@H](CCCCN)C(=O)N[C@H](CCCCN)C(=O)N[C@H](CC(C)C)C(=O)N[C@H](CCCCN)C(=O)N[C@H](CCCCN)C(N)=O)[C@H](C)O [compound 19] (HELM PEPTIDE1{[ac].[dA].[dL].[dK].[dK].[dL].[dL].[dK].[dK].[dL].[dS].[dS].[dA].[NCCC[C@@H](N[*:1])C(=O)[*:2]].[dS].[dS].[NCCC[C@@H](N[*:1])C(=O)[*:2]].[dL].[dS].[dT].[dL].[dL].[dK].[dK].[dL].[dK].[dK].[am]}$$$$V2.0) | >1000 µg/mL
